# Test results reported in the supplement of paper PMC11208160.
# Test: recombinant UMI read abundance after kanamycin selection (control-corrected) (log10(CPM+1)); higher = more efficient recombination; extreme values may be limits of the assay; sequences stand for … in AGTGCAGAGAAAATCGGCCAGTTTTCTCTGCCTGCAGTCCGCATGCCGTGGGACCCCTTGGGTTCTAACCTGTTGCCTAGATTTATGCAGCGGACTGCCTTTCTCCCAAAGTGATAAACCGG…AGGTTGGTTTCACT; site = the 11-nt donor
# Method in brief: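 Sequenced counts of recombinant UMIs were turned into CPM, averaged across replicates and scaled with control-derived factors. The reported figure is log10(CPM+1). Those UMIs, each 12 nt long, tagged donor and donor-binding-loop pairs on a plasmid with a promoterless kanamycin gene, screened as a pool in Escherichia coli with IPTG (0.07 mM) plus kanamycin or without selection.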
# 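Note: IS621 bridge recombinase in Escherichia coli cells against a fixed T5 target plasmid.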
row,Sequence,recombinant UMI read abundance (log10)
1,GTTGTTCCATGGACCGGTTTTCCCGGTAATCCGTATTTGGT (site GTTATTCCTAC),0.00427
2,GTTGTTCCATGGACCGGTTTTCCCGGTAATCCGTATTTGGT (site GTTCTTCCTAC),0.0166
3,GTTGTTCCATGGACCGGTTTTCCCGGTAATCCGTATTTGGT (site GTTGATCCTAC),0.00419
4,GTTGTTCCATGGACCGGTTTTCCCGGTAATCCGTATTTGGT (site GTTGCTCCTAC),0.00968
5,GTTGTTCCATGGACCGGTTTTCCCGGTAATCCGTATTTGGT (site GTTGGTCCTAC),0.00325
6,GTTGTTCCATGGACCGGTTTTCCCGGTAATCCGTATTTGGT (site GTTGTACCTAC),0.00624
7,GTTGTTCCATGGACCGGTTTTCCCGGTAATCCGTATTTGGT (site GTTGTCCCTAC),0.00355
8,GTTGTTCCATGGACCGGTTTTCCCGGTAATCCGTATTTGGT (site GTTGTGCCTAC),0.03
9,GTTGTTCCATGGACCGGTTTTCCCGGTAATCCGTATTTGGT (site GTTGTTACTAC),0.00857
10,GTTGTTCCATGGACCGGTTTTCCCGGTAATCCGTATTTGGT (site GTTGTTCCTAA),0.00913
11,GTTGTTCCATGGACCGGTTTTCCCGGTAATCCGTATTTGGT (site GTTGTTCCTAC),0.00461
12,GTTGTTCCATGGACCGGTTTTCCCGGTAATCCGTATTTGGT (site GTTGTTCCTAG),0
13,GTTGTTCCATGGACCGGTTTTCCCGGTAATCCGTATTTGGT (site GTTGTTCCTAT),0.00563
14,GTTGTTCCATGGACCGGTTTTCCCGGTAATCCGTATTTGGT (site GTTGTTCCTCC),0.0221
15,GTTGTTCCATGGACCGGTTTTCCCGGTAATCCGTATTTGGT (site GTTGTTCCTGC),0.388
16,GTTGTTCCATGGACCGGTTTTCCCGGTAATCCGTATTTGGT (site GTTGTTCCTTC),0.00361
17,GTTGTTCCATGGACCGGTTTTCCCGGTAATCCGTATTTGGT (site GTTGTTGCTAC),0.0845
18,GTTGTTCCATGGACCGGTTTTCCCGGTAATCCGTATTTGGT (site GTTGTTTCTAC),0
19,GTTGTTCCATGGACCGGTTTTCCCGGTAATCCGTATTTGGT (site GTTTTTCCTAC),0
20,GTTGTTCCATGGACCGGTTTTCCCGGTAATCCGTATTTGGT (site TTTGTTCCTAC),0.0162
21,GTTGTTCCATGGACCGGTTTTCCCGGTAATCCGTATTTGTT (site GTTGTTCCTAA),0.42
22,GTTGTTCCATGGACCGGTTTTCCCGGTAATCCGTATTTGTT (site GTTGTTCCTAC),0
23,GTTGTTCCATGGACCGGTTTTCCCGGTAATCCGTATTTGTT (site GTTGTTCCTAG),0
24,GTTGTTCCATGGACCGGTTTTCCCGGTAATCCGTATTTGTT (site GTTGTTCCTAT),0
25,GTTTCAACATGGACCGGTTTTCCCGGTAATCCGTATTTGAC (site GTTTCAACTGT),0.631

row,Sequence,recombinant UMI read abundance (log10)
1,GTTTCAGCATGGACCGGTTTTCCCGGTAATCCGTATTTGTG (site GTTTCAGCTCA),0.537
2,GTTTCTGCATGGACCGGTTTTCCCGGTAATCCGTATTTGAG (site GTTTCTGCTCT),0.45
3,TAAAGGCCATGGACCGGTTTTCCCGGTAATCCGTATTTGTA (site TAAAGACCTTA),0.00739
4,TAAAGGCCATGGACCGGTTTTCCCGGTAATCCGTATTTGTA (site TAAAGCCCTTA),0.00872
5,TAAAGGCCATGGACCGGTTTTCCCGGTAATCCGTATTTGTA (site TAAAGGCCTTA),0.544
6,TAAAGGCCATGGACCGGTTTTCCCGGTAATCCGTATTTGTA (site TAAAGTCCTTA),0.12
7,TAACAACCATGGACCGGTTTTCCCGGTAATCCGTATTTGTT (site TAACAACCTAA),0.06
8,TAACGAACATGGACCGGTTTTCCCGGTAATCCGTATTTGCG (site TAACGAACTCG),1.63
9,TAACGAGCATGGACCGGTTTTCCCGGTAATCCGTATTTGGG (site TAAAGAGCTCC),0.00891
10,TAACGAGCATGGACCGGTTTTCCCGGTAATCCGTATTTGGG (site TAACGAGCTCC),0.146
11,TAACGAGCATGGACCGGTTTTCCCGGTAATCCGTATTTGGG (site TAAGGAGCTCC),0.143
12,TAACGAGCATGGACCGGTTTTCCCGGTAATCCGTATTTGGG (site TAATGAGCTCC),0.0081
13,TAACGCACATGGACCGGTTTTCCCGGTAATCCGTATTTGGT (site TAACGCACTAC),0.736
14,TAACGGTCATGGACCGGTTTTCCCGGTAATCCGTATTTGGC (site TAACGGTCTGC),2.67
15,TAACGTTCATGGACCGGTTTTCCCGGTAATCCGTATTTGTA (site TAACGTTCTTA),1.16
16,TAAGCACCATGGACCGGTTTTCCCGGTAATCCGTATTTGAA (site TAAGCACCTTT),0.0176
17,TAAGCCACATGGACCGGTTTTCCCGGTAATCCGTATTTGAC (site TAAGCCACTGT),2.78
18,TAAGCCGCATGGACCGGTTTTCCCGGTAATCCGTATTTGGG (site TAAGCCGCTCC),0.0145
19,TAAGCGCCATGGACCGGTTTTCCCGGTAATCCGTATTTGTG (site AAAGCGCCTCA),0.0246
20,TAAGCGCCATGGACCGGTTTTCCCGGTAATCCGTATTTGTG (site CAAGCGCCTCA),0.0975
21,TAAGCGCCATGGACCGGTTTTCCCGGTAATCCGTATTTGTG (site GAAGCGCCTCA),0.032
22,TAAGCGCCATGGACCGGTTTTCCCGGTAATCCGTATTTGTG (site TAAGCGCCTCA),0.248
23,TAAGCTCCATGGACCGGTTTTCCCGGTAATCCGTATTTGCG (site TAAGCTCCTCG),0.303
24,TAAGGGGCATGGACCGGTTTTCCCGGTAATCCGTATTTGGC (site TAAGGGGCTGC),2.41
25,TAAGTGTCATGGACCGGTTTTCCCGGTAATCCGTATTTGCA (site TAAGTGTCTTG),3.32

row,Sequence,recombinant UMI read abundance (log10)
1,TAATACTCATGGACCGGTTTTCCCGGTAATCCGTATTTGCA (site TAATACTCTTG),2.63
2,TAATACTCATGGACCGGTTTTCCCGGTAATCCGTATTTGCA (site TCATACTCTTG),1.69
3,TAATACTCATGGACCGGTTTTCCCGGTAATCCGTATTTGCA (site TGATACTCTTG),1.6
4,TAATACTCATGGACCGGTTTTCCCGGTAATCCGTATTTGCA (site TTATACTCTTG),1.68
5,TAATAGACATGGACCGGTTTTCCCGGTAATCCGTATTTGGC (site TAATAGACTGC),2.02
6,TAATCAGCATGGACCGGTTTTCCCGGTAATCCGTATTTGGG (site TAATAAGCTCC),0.00976
7,TAATCAGCATGGACCGGTTTTCCCGGTAATCCGTATTTGGG (site TAATCAGCTCC),0.0129
8,TAATCAGCATGGACCGGTTTTCCCGGTAATCCGTATTTGGG (site TAATGAGCTCC),0.00426
9,TAATCAGCATGGACCGGTTTTCCCGGTAATCCGTATTTGGG (site TAATTAGCTCC),0.0124
10,TAATGAGCATGGACCGGTTTTCCCGGTAATCCGTATTTGGT (site TAATGAGCTAC),0.862
11,TAATGAGCATGGACCGGTTTTCCCGGTAATCCGTATTTGGT (site TAATGAGCTCC),0.00749
12,TAATGAGCATGGACCGGTTTTCCCGGTAATCCGTATTTGGT (site TAATGAGCTGC),0
13,TAATGAGCATGGACCGGTTTTCCCGGTAATCCGTATTTGGT (site TAATGAGCTTC),0.0263
14,TAATGATCATGGACCGGTTTTCCCGGTAATCCGTATTTGGG (site TAATGAACTCC),0.0159
15,TAATGATCATGGACCGGTTTTCCCGGTAATCCGTATTTGGG (site TAATGACCTCC),0.00916
16,TAATGATCATGGACCGGTTTTCCCGGTAATCCGTATTTGGG (site TAATGAGCTCC),0.0135
17,TAATGATCATGGACCGGTTTTCCCGGTAATCCGTATTTGGG (site TAATGATCTCC),0.594
18,TAATGGGCATGGACCGGTTTTCCCGGTAATCCGTATTTGGG (site TAATGAGCTCC),0.0138
19,TAATGGGCATGGACCGGTTTTCCCGGTAATCCGTATTTGGG (site TAATGCGCTCC),0.0166
20,TAATGGGCATGGACCGGTTTTCCCGGTAATCCGTATTTGGG (site TAATGGGCTCC),0.0225
21,TAATGGGCATGGACCGGTTTTCCCGGTAATCCGTATTTGGG (site TAATGTGCTCC),0.0203
22,TAATTAACATGGACCGGTTTTCCCGGTAATCCGTATTTGGT (site TAATTAACTAC),0.813
23,TAATTCCCATGGACCGGTTTTCCCGGTAATCCGTATTTGCT (site AAATTCCCTAG),0.531
24,TAATTCCCATGGACCGGTTTTCCCGGTAATCCGTATTTGCT (site CAATTCCCTAG),0.55
25,TAATTCCCATGGACCGGTTTTCCCGGTAATCCGTATTTGCT (site GAATTCCCTAG),1.7
